This data set in a line: Clinical trial of compound A in conventional formulations (not published). The note with it: human, in vivo; read-out: elimination half-life (T1/2). From the text: These problems are considered to be raised by, for example, the changes in pharmacokinetics caused by food, and therefore, the development of a formulation capable of avoiding the effects by food intake is desired.
Taking into consideration the results of the clinical trial described above, the present inventors conducted intensive studies to design the formulation by paying attention to the control of a release rate of the drug from a formulation to the extent that the release is not affected by food intake or the like, rather than the addition of release control.
On the basis of blood concentration profiles (in a fasted state/after the intake of food) after administration of a conventional formulation (rapid release formulation), the absorption rate of the drug in a fed state was calculated by a deconvolution method to predict continuous absorption for about 4 hours.

On to `Nc1nc(CC(=O)Nc2ccc(CCNC[C@H](O)c3ccccc3)cc2)cs1` [compound A, (R)-2-(2-aminothiazol-4-yl)-4′-[2-[(2-hydroxy-2-phenylethyl)amino]ethyl]acetic acid anilide], for which the half-life lay within 18 to 24 h.

For the origin of these results see patent publication US12059409B1, “Pharmaceutical composition for modified release” (ASTELLAS PHARMA INC., priority 2008, dated 2024).
